According to PMC8406298, “Discovery of Fungus-Specific Targets and Inhibitors Using Chemical Phenotyping of Pathogenic Spore Germination” (mBio, 2021):

Legend:
[1] = system: normal human dermal fibroblasts (NHDF) cells; assay: Fibroblast cytotoxicity (CellTiter-Glo); format: cell-based; details: 10 µM
How it was run: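 Normal human dermal fibroblasts, 1 × 10^3 per well, exposed to compounds at 10 μM for 72 h at 37°C. Viability read as ATP-dependent CellTiter-Glo luminescence. Dose-response runs titrated compounds from 80 μM to 0.5 μM in duplicate.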

[2] = system: Cryptococcus yeast (CHY3833 and CHY3836); assay: Yeast replication secondary screen (OD600); format: cell-based, Cryptococcus neoformans serotype D (deneoformans); details: 10 μM, 12 h at 30°C
Experimental: (ii) Yeast replication. CHY3833 and CHY3836 were each grown in YPD liquid overnight at 30°C to saturation and then resuspended in 0.5× YPD at an OD600 of 0.005. Strains were aliquoted into 384-well plates with inhibitors and grown for 12 h at 30°C at […] before OD600 readings were taken. Compounds that caused a >10% decrease in growth were considered yeast growth inhibitors.

SMILES	Cytotoxicity: Relative Cell Viability (% of Negative Control) [1]	Yeast Inhibition: % Inhibition [2] [%]
CCn1c(SC/C=C\c2ccccc2)nnc1-c1ccncc1 [compound 18558862]	88.2 % of Negative Control	36.7
COC(=O)c1ccc(Cn2c(S(C)(=O)=O)nc3ccccc32)cc1 [compound 18576765]	88.5 % of Negative Control	3.8
O=C(CCSc1ccc(Cl)cc1)Nc1ccc2scnc2c1 [compound 18585549]	96.1 % of Negative Control	29.1
COc1ccc(SCCCC(=O)Nc2ncnc3sccc23)cc1 [compound 18585630]	104.7 % of Negative Control	15.2
CC1CNc2ccccc2N(Cc2ccc(Br)cc2)C1=O (stereo not shown) [compound 20896311]	94.5 % of Negative Control	5.6
Cc1oc2cc(OCCN3CCN(c4ccccc4F)CC3)ccc2c(=O)c1-c1ccccc1 [compound 24280258]	103.4 % of Negative Control	7.5
Cc1cc(-c2nnc(NC(=O)c3ccc(C(=O)c4ccccc4)cc3)o2)nn1C [compound 25283140]	79.9 % of Negative Control	-15.6
CCCC(CCC)C(=O)N1CCN(c2ccc(-c3cccnc3)nn2)CC1 [compound 25283686]	103.7 % of Negative Control	2.8
Cc1ccn(-c2ccc(N3CCN(C(=O)c4ccccc4Br)CC3)nn2)n1 [compound 25667819]	101.9 % of Negative Control	-7.4
Cc1cc(NC(=O)c2cccc(Oc3ccccc3)c2)on1 [compound 25813521]	105.8 % of Negative Control	19.4
CN1C(=O)c2cccc(NC(=O)c3ccnn3C)c2C1=O [compound 25835862]	104.6 % of Negative Control	41.6
COc1ccc(-c2noc(CSc3nc4ccsc4c(=O)n3C)n2)cc1 [compound 27373469]	109.3 % of Negative Control	33.0
Cc1ccccc1CSc1n[nH]c(=O)c2cc(-c3ccco3)nn12 [compound 27373907]	97.6 % of Negative Control	49.7
COc1ccc(-c2noc(-c3cc(-c4cc(C)ccc4C)n[nH]3)n2)cc1OC [compound 27375613]	94.0 % of Negative Control	9.4
Cc1nc(C)c(C(=O)NCCn2ncc3c(N4CCN(Cc5ccccc5)CC4)ncnc32)s1 [compound 27460748]	112.9 % of Negative Control	22.5
O=C(NC1CCCC1)c1csc(Nc2ccccc2)n1 [compound 30860168]	93.7 % of Negative Control	82.0
O=C(NCCOc1ccc(F)cc1)c1ccc(C(F)(F)F)cc1 [compound 30865811]	100.1 % of Negative Control	68.2
Cc1nc(Oc2ccccc2)cc(N2CCN(C(=O)/C=C/c3ccccc3)CC2)n1 [compound 42065409]	90.0 % of Negative Control	15.5
Cc1nc(C)c(C(=O)NCCn2ncc3c(N4CCN(c5ccc(F)cc5)CC4)ncnc32)s1 [compound 42099839]	79.3 % of Negative Control	43.6
O=S(=O)(NCCN1CCN(c2ccc(Cl)cc2)CC1)c1ccc(Cl)s1 [compound 42268033]	102.4 % of Negative Control	19.1
Nc1nc(Cl)cc(Nc2cccc(C(F)(F)F)c2)n1 [compound 42589452]	51.8 % of Negative Control	100.9
OC(COc1ccc(Br)cc1Br)CN1CCc2ccccc2C1 (stereo not shown) [compound 43842355]	28.9 % of Negative Control	76.5
O=C(C1CCC1)N(Cc1cccnc1)c1nc2ccc(Cl)cc2s1 [compound 43967671]	97.1 % of Negative Control	78.9
Cc1cc(-c2nnc(NC(=O)C3Oc4ccccc4OC3C)o2)n(C)n1 (stereo not shown) [compound 44070699]	97.2 % of Negative Control	-15.7

SMILES	Cytotoxicity: Relative Cell Viability (% of Negative Control) [1]	Yeast Inhibition: % Inhibition [2] [%]
CCCc1cc(=O)[nH]c(-n2nc(C)cc2C)n1 [compound 44116743]	64.3 % of Negative Control	96.0
Cc1ccc(COC(=O)c2ccc(C3Nc4ccccc4S(=O)(=O)N3)cc2)cc1 (stereo not shown) [compound 44117349]	106.4 % of Negative Control	15.4
O=C(COC(=O)c1ccc(C2Nc3ccccc3S(=O)(=O)N2)cc1)Nc1cc(F)ccc1F (stereo not shown) [compound 44117394]	105.4 % of Negative Control	9.7
Cl.Cl.OC(COc1cccc2ccccc12)CN1CCN(c2ccc(F)cc2)CC1 (stereo not shown) [compound 45283772]	96.8 % of Negative Control	44.0
COc1ccc(CCNC(=O)c2cnn3c(-c4ccc(C)c(C)c4)ccnc23)cc1OC [compound 46074589]	105.7 % of Negative Control	-4.7
Cc1ccc(Nc2ccc(N3CCN(C(=O)Cc4ccc(F)cc4)CC3)nn2)cc1 [compound 49671361]	102.4 % of Negative Control	-10.5
Cc1noc(C)c1C(=O)N1CCN(c2ccc(-c3noc(C(C)C)n3)cn2)CC1 [compound 49701731]	102.2 % of Negative Control	1.4
Cc1cccc(CC(=O)Nc2cc(C)ns2)c1 [compound 49722107]	98.5 % of Negative Control	32.6
COc1ccc2nc(N3CCCC(C(=O)O)C3)sc2c1 (stereo not shown) [compound 53212169]	105.4 % of Negative Control	-17.8
CC(C)c1nc(-c2ccc(N3CCN(C(=O)Cc4cn(C)c5ccccc45)CC3)nc2)no1 [compound 71780502]	91.8 % of Negative Control	-2.9
Cc1cc(C(=O)N(CCc2cccs2)C2CC2)c(C)o1 [compound 71781394]	103.1 % of Negative Control	95.6
CN(C)CCN(C(=O)c1c[nH]c2ccccc12)c1nc2ccc(OC(F)(F)F)cc2s1.Cl [compound 71782913]	66.6 % of Negative Control	99.5
O=C(c1cc(-c2ccco2)on1)N1CCC(c2cccs2)CC1 [compound 71786870]	90.1 % of Negative Control	39.7
O=C(CSCc1ccccc1)N1CCC(c2cccs2)CC1 [compound 71786876]	97.1 % of Negative Control	12.2
O=C(CCSc1ccccc1)N1CCC(c2cccs2)CC1 [compound 71786877]	89.8 % of Negative Control	10.0
O=C(CSCc1ccccc1)N1CCC(c2ccsc2)CC1 [compound 71786985]	101.7 % of Negative Control	11.0
O=C(CSc1ccc(F)cc1)N1CCC(c2ccsc2)CC1 [compound 71786989]	102.2 % of Negative Control	16.0
O=C(Cc1cccc2ccccc12)N1CCC(c2ccsc2)CC1 [compound 71786990]	94.3 % of Negative Control	8.3
Cc1cc(C(=O)NCCC(O)c2cccc3ccccc23)c(C)o1 (stereo not shown) [compound 71787916]	101.1 % of Negative Control	28.8
O=C(Nc1nc2c(s1)CN(C(=O)C1(c3cccs3)CCCC1)CC2)c1ccoc1 [compound 71788301]	91.4 % of Negative Control	8.3
COc1cc(NS(=O)(=O)c2cccc(C(F)(F)F)c2)ncn1 [compound 71795763]	90.4 % of Negative Control	-14.5
Cc1cccc2sc(OC3CN(C(=O)Cc4ccc(F)cc4)C3)nc12 [compound 71796286]	99.2 % of Negative Control	3.1
Cc1cc(C(=O)NCCc2nc(C3CC3)cc(C(F)(F)F)n2)c(C)o1 [compound 71797038]	94.6 % of Negative Control	47.0
